Test results taken from patent US7208162B2, “Combination therapy of respiratory diseases using antibodies and anti-inflammatory agents” (priority 2000, dated 2007).

What was measured:
[1] = cited from earlier work
[2] = test system: RSV; details: aerosol inhalation; versus untreated patients; cited from earlier work
[3] = test system: respiratory syncytial virus (RSV/Long); assay: Example 1: antibody/triamcinolone therapy of RSV-infected cotton rats (virus titer, pulmonary pathology); assay type: in vivo; details: treatment i.m. beginning 3 days post-infection; antibody 15 mg/kg, triamcinolone 1-16 mg/kg; lungs days 4 and 6
Description: The following procedure was performed using inbred cotton rats (Sigmodon hispidus). On day 0, young adult cotton rats were divided into 9 groups of 12 animals each (total: 108 animals). Identification of each group in terms of treatment was as follows:
In each case (Groups B–I), approximately 10^6.5 plaque forming units (pfu) of respiratory syncytial virus (RSV/Long) was administered intranasally in a volume of 100 μl.
On day 3, treatment began as described above for each of the groups. The animals were each weighed and treated according to the indicated regimen. All antibody and steroid administration was intramuscular (i.e., systemic) and both antibody and steroid were administered together. Antibody was palivizumab wherein 15 mg/kg was the dose used in each case. All dosages are given as mg per kg of body weight.
On day 4, six animals from each group were sacrificed, their lungs bisected, with half being homogenized for viral quantitation and the other half being inflated with formalin for histological examination. The remaining six animals in each of groups D through I were treated with the dose of triamcinolone indicated above but no additional antibody was given.
On day 5, the remaining six animals in each group were treated again as described for day 4 (again with no additional antibody).
On day 6, the remaining 6 animals from each group were sacrificed and data collected as described for day 4. Thus, their lungs were bisected, with half being homogenized for viral quantitation and the other half being inflated with formalin for histological examination.
Results of these experiments are shown graphically in FIGS. 2(a through e).
This experiment was duplicated on a separate population of 108 cotton rats divided into groups and treated as just described with similar results reported in FIG. 3 (FIG. 3(a) showing virus titer and FIG. 3(b) showing composite pathology score). The conclusions herein are the result of data from both experiments. The results for composite pathology scores are shown in FIG. 1 reflecting the results of both sets of experiments.

[4] = test system: RSV; assay: Example 5: lung pathology score (0 to 100) on day 6 after MAb and glucocorticoid therapy; assay type: in vivo, cotton rats
Description: Twenty eight (28) cotton rats (CRs) were infected intranasally with 6.5 logs of RSV (as 0.1 ml of inoculum), leading to dramatic lung pathology 6 days post-infection (PI). On day 3 PI (the peak for viral infection), 7 groups of 4 animals received one of the following: no therapy, or intramuscular (i.m.) MAb (15 mg/kg) (MAb=palivizumab) i.m. triamcinolone (TRI;Steris Laboratories, Phoenix, Ariz.) at 16 mg/kg and MAb; i.p. methylprednisolone (MED; Solu-Medrol® Pharmacia and Upjohn, Kalamazoo, Mich.) 4 mg/kg and MAb; i.p. MED at 8 mg/kg and MAb; i.p. dexamethasone (DEX; Elkins-Sinn, Cherry Hill, N.J.) 0.6 mg/kg and MAb; or i.p. DEX 1.2 mg/kg and MAb (TRI and DEX once daily, MED divided into every 6 hours). All glucocorticoids were repeated on days 4 and 5. The dose, frequency and route of administration of dexamethasone and methylprednisolone were extrapolated from human use recommendations.
On day 6, all groups (including 4 uninfected CRs were sacrificed (in general by carbon dioxide asphyxiation). For pathology, tissues were inflated and formalin fixed and coronal paraffin sections were cut at 4 μm thickness. Lung tissue slides scored on a 0 (normal) to 100 (marked pathology) severity scale, for bronchiolitis, alveolitis, and interstitial pneumonia.
Results are shown graphically in FIG. 7A and summarized as follows in terms of pathology score (0 to 100).

[5] = test system: respiratory syncytial virus (RSV/Long); assay: Example 3: different steroids with the same antibody in RSV pneumonia, arithmetic mean pathology scores; assay type: in vivo; details: 8 mg/kg/day i.p. days 3-5 plus antibody 15 mg/kg day 3; day 6
Description: The following procedure was performed using inbred cotton rats (Sigmodon hispidus). On day 0, young adult cotton rats were divided into 8 groups of 4 animals each (total: 32 animals). Identification of each group in terms of treatment was as follows:
In each case (Groups B–H), approximately 10^6.5 plaque forming units (pfu) of respiratory syncytial virus (RSV/Long) was administered intranasally in a volume of 100 μl.
On day 3, treatment began as described above for each of the groups. The animals were each weighed and treated according to the indicated regimen. Antibody was palivizumab wherein 15 mg/kg was the dose used in each case. All dosages are given as mg per kg of body weight.
On day 4, animals in groups D through H were treated as described for day 3 but no additional antibody was given.
On day 5, animals in groups D through H were treated as on […] (again with no additional antibody).
On day 6, all animals were sacrificed. Lungs from all of the animals were inflated with formalin for histological examination.

[6] = test system: Respiratory Syncytial Virus; details: systemically administered; 147 infants; cited from earlier work
[7] = MAb 15 mg/kg i.m. day 3, TRI 16 mg/kg i.m. days 3-5

NC(=O)c1ncn([C@@H]2O[C@H](CO)[C@@H](O)[C@H]2O)n1 [ribavirin]
bioavailability ([1]; given orally): about 45% | time of peak concentrations in plasma ([1]; in vivo, po): 1 to 2 h | level of secondary infection following cessation of treatment [2]: significantly higher than in untreated patients

palivizumab: anti-RSV IgG monoclonal antibody, commercially palivizumab, sequence described as Medi-493 (U.S. Pat. No. 5,824,307 FIGS. 7 and 8)
pulmonary pathology [3]: no significant effect on pulmonary pathology | viral clearance (RSV titer in lungs) [3]: accelerated viral clearance | pathology (summary of Table 1) [4]: did not reduce pathology | Alveolitis pathology score (0 to 100) [4, 7]: 38 | Bronchiolitis pathology score (0 to 100) [4, 7]: 75 | Interstitial Pneumonia pathology score (0 to 100) [4, 7]: 49 | lung tissue histology (inflammatory infiltrates) ([4]; palivizumab day 3, methylprednisolone days 3, 4 and 5, hematoxylin and eosin, 64X): Little or no improvement

C[C@H]1C[C@@H]2[C@H]([C@@H](O)C[C@@]3(C)[C@H]2CC[C@]3(O)C(=O)COC(=O)CCC(=O)[O-])[C@@]2(C)C=CC(=O)C=C12.[Na+] [solumedrol]
pulmonary pathology (arithmetic mean pathology scores) compared with triamcinolone [5]: worked almost as well as triamcinolone

C[C@]12C=CC(=O)C=C1CC[C@H]1[C@@H]3C[C@@H](O)[C@](O)(C(=O)CO)[C@@]3(C)C[C@H](O)[C@@]12F [triamcinolone]
pulmonary pathology [3]: positive effect on pulmonary pathology | viral clearance (RSV titer in lungs) [3]: retarded viral clearance

C[C@]12C=CC(=O)C=C1CC[C@@H]1[C@@H]2[C@@H](O)C[C@@]2(C)[C@H]1CC[C@]2(O)C(=O)CO [prednisolone]
effectiveness in infant RSV [6]: ineffectiveness
